For one compound, Activity results are on record in ChEMBL document CHEMBL3232845 (Bioorg Med Chem Lett, 2014).

Molecules are shown by their SMILES.

Holding throughout (design): scale not given: the % may be the effect or the level left
Assay [1] addresses Platelet-derived growth factor receptor alpha (Homo sapiens) (UniProt P16234). Put plainly: Inhibition of human PDGFRalpha assessed as enzyme activity at 1 uM relative to control.
The target in assay [2] is Ephrin type-A receptor 2 (Homo sapiens) (UniProt P29317). Put plainly: Inhibition of human EphA2 assessed as enzyme activity at 1 uM relative to control.
The target in assay [3] is Inhibitor of nuclear factor kappa-B kinase subunit beta (Homo sapiens) (UniProt O14920). Put plainly: Inhibition of human IKKbeta assessed as enzyme activity at 1 uM relative to control.
Assay [4] deals with Serine/threonine-protein kinase STK11 (Homo sapiens) (UniProt Q15831). Put plainly: Inhibition of human LKB1 assessed as enzyme activity at 1 uM relative to control.
For assay [5], the target named is Protein-tyrosine kinase 6 (Homo sapiens) (UniProt Q13882). Put plainly: Inhibition of human PTK6 assessed as enzyme activity at 1 uM relative to control.
Chain of Protein-tyrosine kinase 6 (Homo sapiens) (Q13882 whole entry, looked up): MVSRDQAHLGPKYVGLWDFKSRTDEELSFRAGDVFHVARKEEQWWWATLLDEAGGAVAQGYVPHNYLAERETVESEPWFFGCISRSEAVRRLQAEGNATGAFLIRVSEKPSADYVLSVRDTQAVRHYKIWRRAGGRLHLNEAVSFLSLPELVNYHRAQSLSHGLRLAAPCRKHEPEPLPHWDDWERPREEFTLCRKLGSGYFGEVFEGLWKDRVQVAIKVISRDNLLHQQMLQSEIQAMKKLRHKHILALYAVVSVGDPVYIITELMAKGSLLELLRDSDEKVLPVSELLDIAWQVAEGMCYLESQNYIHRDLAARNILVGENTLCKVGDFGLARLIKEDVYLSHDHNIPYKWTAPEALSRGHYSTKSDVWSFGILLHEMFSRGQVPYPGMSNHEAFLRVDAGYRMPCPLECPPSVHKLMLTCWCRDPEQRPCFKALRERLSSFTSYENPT

Chain of Platelet-derived growth factor receptor alpha (Homo sapiens) (P16234 whole entry): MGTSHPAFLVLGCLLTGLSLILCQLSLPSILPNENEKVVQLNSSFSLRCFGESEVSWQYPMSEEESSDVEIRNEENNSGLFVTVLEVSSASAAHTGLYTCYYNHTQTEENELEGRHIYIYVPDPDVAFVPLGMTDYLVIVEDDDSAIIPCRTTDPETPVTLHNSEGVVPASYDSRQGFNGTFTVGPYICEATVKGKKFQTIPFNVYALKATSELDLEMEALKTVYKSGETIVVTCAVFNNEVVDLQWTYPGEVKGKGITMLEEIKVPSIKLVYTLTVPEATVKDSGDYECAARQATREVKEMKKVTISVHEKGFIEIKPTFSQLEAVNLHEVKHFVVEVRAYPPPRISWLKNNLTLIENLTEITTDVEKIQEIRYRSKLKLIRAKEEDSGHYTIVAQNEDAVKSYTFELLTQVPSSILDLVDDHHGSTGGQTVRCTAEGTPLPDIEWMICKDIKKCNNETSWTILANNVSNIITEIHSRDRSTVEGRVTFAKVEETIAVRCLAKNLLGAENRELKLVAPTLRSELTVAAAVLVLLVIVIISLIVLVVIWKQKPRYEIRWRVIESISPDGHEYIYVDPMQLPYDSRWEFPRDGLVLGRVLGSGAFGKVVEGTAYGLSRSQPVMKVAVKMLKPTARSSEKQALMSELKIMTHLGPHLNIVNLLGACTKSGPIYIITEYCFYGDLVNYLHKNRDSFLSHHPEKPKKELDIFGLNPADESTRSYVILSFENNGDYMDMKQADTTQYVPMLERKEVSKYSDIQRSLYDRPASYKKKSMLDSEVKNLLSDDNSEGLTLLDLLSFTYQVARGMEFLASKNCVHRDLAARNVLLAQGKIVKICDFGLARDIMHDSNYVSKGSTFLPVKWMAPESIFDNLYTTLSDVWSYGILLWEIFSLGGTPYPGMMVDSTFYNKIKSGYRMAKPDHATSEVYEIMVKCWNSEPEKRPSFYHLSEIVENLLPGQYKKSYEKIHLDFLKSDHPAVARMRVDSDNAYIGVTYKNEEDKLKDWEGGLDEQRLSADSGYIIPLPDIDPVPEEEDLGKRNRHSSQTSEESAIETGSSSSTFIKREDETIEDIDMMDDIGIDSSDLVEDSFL
Chain of Inhibitor of nuclear factor kappa-B kinase subunit beta (Homo sapiens) (O14920 whole entry): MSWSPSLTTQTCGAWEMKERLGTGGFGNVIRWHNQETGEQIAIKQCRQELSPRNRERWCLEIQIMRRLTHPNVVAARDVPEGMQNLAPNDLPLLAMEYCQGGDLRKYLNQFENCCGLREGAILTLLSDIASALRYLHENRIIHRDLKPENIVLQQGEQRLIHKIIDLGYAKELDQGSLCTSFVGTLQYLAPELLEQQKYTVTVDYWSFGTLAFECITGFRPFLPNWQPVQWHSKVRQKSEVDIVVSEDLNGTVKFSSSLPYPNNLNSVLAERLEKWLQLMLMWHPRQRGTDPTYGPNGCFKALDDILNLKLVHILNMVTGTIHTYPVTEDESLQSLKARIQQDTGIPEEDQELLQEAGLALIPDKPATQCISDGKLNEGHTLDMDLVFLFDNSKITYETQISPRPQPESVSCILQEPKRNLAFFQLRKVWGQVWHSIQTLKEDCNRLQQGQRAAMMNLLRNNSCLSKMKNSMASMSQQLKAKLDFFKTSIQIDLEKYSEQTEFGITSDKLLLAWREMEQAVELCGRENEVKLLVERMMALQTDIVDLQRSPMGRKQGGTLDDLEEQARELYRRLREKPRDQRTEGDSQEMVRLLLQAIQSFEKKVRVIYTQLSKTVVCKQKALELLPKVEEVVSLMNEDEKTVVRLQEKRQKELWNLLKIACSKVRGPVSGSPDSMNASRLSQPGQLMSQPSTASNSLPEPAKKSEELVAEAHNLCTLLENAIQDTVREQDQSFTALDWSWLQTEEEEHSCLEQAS
Chain of Ephrin type-A receptor 2 (Homo sapiens) (P29317 whole entry): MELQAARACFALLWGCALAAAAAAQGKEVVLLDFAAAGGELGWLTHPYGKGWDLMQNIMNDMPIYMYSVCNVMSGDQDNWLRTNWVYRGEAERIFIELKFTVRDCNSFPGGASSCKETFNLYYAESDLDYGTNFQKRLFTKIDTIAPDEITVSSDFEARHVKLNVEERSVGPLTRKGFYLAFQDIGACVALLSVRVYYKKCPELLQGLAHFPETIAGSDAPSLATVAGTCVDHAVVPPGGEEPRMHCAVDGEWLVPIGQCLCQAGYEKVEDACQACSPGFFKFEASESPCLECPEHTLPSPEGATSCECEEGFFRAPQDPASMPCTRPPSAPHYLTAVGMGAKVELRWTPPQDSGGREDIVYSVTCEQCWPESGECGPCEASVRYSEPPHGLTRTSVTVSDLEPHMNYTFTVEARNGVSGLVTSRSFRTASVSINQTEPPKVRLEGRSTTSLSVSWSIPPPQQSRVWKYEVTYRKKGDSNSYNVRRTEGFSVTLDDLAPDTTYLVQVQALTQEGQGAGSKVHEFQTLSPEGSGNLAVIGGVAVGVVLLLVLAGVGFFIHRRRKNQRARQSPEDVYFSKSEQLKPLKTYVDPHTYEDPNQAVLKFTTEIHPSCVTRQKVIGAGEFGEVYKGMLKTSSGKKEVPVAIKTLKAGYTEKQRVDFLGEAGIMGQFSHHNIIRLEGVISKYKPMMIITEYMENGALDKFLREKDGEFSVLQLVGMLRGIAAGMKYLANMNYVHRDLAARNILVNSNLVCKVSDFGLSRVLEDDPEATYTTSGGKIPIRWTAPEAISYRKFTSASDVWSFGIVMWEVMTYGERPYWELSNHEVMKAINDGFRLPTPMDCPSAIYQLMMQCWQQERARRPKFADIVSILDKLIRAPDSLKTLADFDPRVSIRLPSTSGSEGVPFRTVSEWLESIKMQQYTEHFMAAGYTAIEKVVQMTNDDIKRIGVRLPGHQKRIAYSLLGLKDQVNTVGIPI
Chain of Serine/threonine-protein kinase STK11 (Homo sapiens) (Q15831 whole entry): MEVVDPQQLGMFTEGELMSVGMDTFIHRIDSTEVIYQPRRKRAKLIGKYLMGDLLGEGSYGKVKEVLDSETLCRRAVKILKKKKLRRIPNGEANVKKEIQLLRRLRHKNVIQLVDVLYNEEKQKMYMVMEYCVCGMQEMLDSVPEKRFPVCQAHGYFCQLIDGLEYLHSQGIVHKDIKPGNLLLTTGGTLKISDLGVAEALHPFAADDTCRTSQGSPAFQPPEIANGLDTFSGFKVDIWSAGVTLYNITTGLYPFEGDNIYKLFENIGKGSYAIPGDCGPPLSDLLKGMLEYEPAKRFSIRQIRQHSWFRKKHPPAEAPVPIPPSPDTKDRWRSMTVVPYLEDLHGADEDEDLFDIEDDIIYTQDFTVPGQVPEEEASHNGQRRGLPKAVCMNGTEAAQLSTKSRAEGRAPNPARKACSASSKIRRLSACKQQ

For the compound `CCCS(=O)(=O)Nc1cccc(Nc2ccc3ncn(C)c(=O)c3c2)c1C#N`, the Activity in assay [1] was found to be 102%; in assay [2], 99.5%; in assay [3] it was 104%; in assay [4] it was 90.5%; in assay [5] it was 57.5%.
